Data taken from paper PMC3397457, “Preclinical Evaluation of Anticancer Efficacy and Pharmacological Properties of FBA-TPQ, a Novel Synthetic Makaluvamine Analog” (Marine Drugs, 2012).

Assays:
Panc-1 xenograft tumors = test: Panc-1 xenograft model in nude mice; type: in vivo; details: for inhibition of tumor growth: 5 days/week, vs control group
Description: Since it exerted potent effects in vitro, we determined whether FBA-TPQ could also show anti-tumor effects in vivo. Nude mice bearing Panc-1 xenograft tumors were treated with vehicle or FBA-TPQ at 5 or 10 mg/kg/day, 5 days per week.
Figure 3 In vivo effects of FBA-TPQ administered to nude mice bearing Panc-1 xenograft tumors. (a) FBA-TPQ was administered by intraperitoneal (ip) injection at doses of 5 mg/kg/day, 5 days/week for 3 weeks and 10 mg/kg/day, 5 days/week for 2 weeks, tumors were measured […]; (b) At the end of the experiment, representative tumors were removed and photographed; (c) Animals were also monitored for changes in body weight as a surrogate marker for toxicity.
The animal use and care protocol was approved by the Institutional Animal Use and Care Committee of Texas Tech University Health Sciences Center. Female athymic pathogen-free nude mice (nu/nu, 4–6 weeks) were purchased from the Charles River Laboratories International. Inc. (Wilmington, MA, USA). To establish Panc-1 human pancreatic cancer xenograft tumors, cultured Panc-1 cells were harvested from monolayer cultures, washed twice with serum-free medium, re-suspended and injected sc (5 × 10^6 cells, total volume 0.2 mL) into the left inguinal area of the mice. All animals were monitored for activity, physical condition, body weight, and tumor growth. Tumor size was determined every other day by caliper measurement of two perpendicular diameters of the implant. Tumor mass (in g) was calculated by the formula, 1/2a × b^2 where “a” is the long diameter and “b” is the short diameter (in cm).
The animals bearing human cancer xenografts were randomly divided into various treatment groups and a control group (7–10 mice/group). The untreated control group received the vehicle only. For the Panc-1 xenograft model, FBA-TPQ was dissolved in PEG400: ethanol: saline (57.1: 14.3: 28.6, v/v/v),and was administered by intraperitoneal (ip) injection at doses of 5 and 10 mg/kg/d, 5 d/wk for 3 weeks.

Mia PaCa-2 cells = test: Annexin V apoptosis assay/flow cytometry, Mia PaCa-2; type: cell-based, human; details: Mia PaCa-2, 1 µM, 48 h
Description: The apoptotic cells were detected using a method reported previously. […] In HPAC cells, a 1 µM concentration of FBA-TPQ increased the apoptotic index two-fold higher than that seen in control cells (P < 0.01). […] In the Mia PaCa-2 cells, FBA-TPQ at 1 µM led to a three-fold increase in apoptosis (P < 0.01).
Following a similar protocol as above, cells in early and late stages of apoptosis were detected using an Annexin V-FITC apoptosis detection kit from BioVision (Mountain View, CA, USA), according to the manufacturer’s protocol. For apoptosis experiments, 2–3 × 10^5 cells were exposed to the test compound (0, 0.1, 0.5 and 1.0 µM) and incubated for 48 h prior to analysis. Cells were collected and washed with serum-free media. Cells were then re-suspended in 500 µL of Annexin V binding buffer followed by addition of 5 µL of Annexin V-FITC and 5 µL of propidium iodide (PI). The samples were incubated in the dark for 5 min at room temperature and analyzed with a Becton Dickinson FACSCalibur instrument (Ex = 488 nm; Em = 530 nm). Cells that were positive for Annexin V-FITC alone (early apoptosis) and Annexin V-FITC and PI (late apoptosis) were counted. The apoptotic index was calculated against the untreated control cells.

O=C1C(NCc2ccc(F)cc2)=CC2=NCCc3c[nH]c1c32 [FBA-TPQ, 7-(4-fluorobenzylamino)-1,3,4,8-tetrahydropyrrolo[4,3,2-de]quinolin-8(1H)-one]
inhibition of tumor growth (Panc-1 xenograft tumors; 5 mg/kg/day ip): 77.8% | inhibition of tumor growth (Panc-1 xenograft tumors; 10 mg/kg/day ip): 90.1% | host toxicity (body weight as surrogate marker) (Panc-1 xenograft tumors; 5 and 10 mg/kg/day ip): No significant host toxicity | tumor regression/remission (Panc-1 xenograft tumors; both treated groups (5 and 10 mg/kg/day ip)): significant tumor regression or complete remission | increase in apoptosis vs control cells (Mia PaCa-2 cells): three-fold
